Results as given in patent publication US8367317B2, “Variants of hepatitis B virus with resistance to anti-viral nucleoside agents and applications thereof” (Melbourne Health; St. Vincent's Hospital Melbourne; Austin …, priority 2005, dated 2013).
Counter-ions that a name gives are not always drawn.

Columns and labels:
[1] = system: WT HBV (genotype D isolate, precore G1896A background); experiment: Antiviral testing in HepG2 cells transduced with recombinant HBV/baculovirus, wild type; format: cell-based, hepatitis B virus; settings: none (WT) polymerase; area under dose-response curve; values set to 1.0 (relative to WT)
Method: (§1) The sensitivity/resistance profile of HBV mutants to adefovir, tenofovir and other antiviral agents was examined in vitro using recombinant HBV/baculovirus. The procedure for analysing the resistance profile is outlined in the following Examples 7-14.
(§2) Sf21 insect cells were maintained in supplemented Grace's insect medium further supplemented with 10% v/v heat-inactivated fetal bovine serum (Gibco BRL, Gaithersburg, Md.) in humidified incubator at 28 C with CO2. HepG2 cells were maintained in minimal essential medium supplemented with 10% v/v heat-inactivated fetal bovine serum (MEM-FBS). HepG2 cells were grown in humidified 37° C. incubators at 5% v/v CO2.
(§3) The recombinant HBV/baculovirus system used for antiviral testing has been previously described (Delaney et al., Antimicrob Agents Chernother 45(6): 1705-[…], 2001). In brief, the recombinant transfer vector was created by excising a fragment containing the 1.3× HBV genome construct and cloning it into the multiple cloning region of a baculovirus vector pBlueBac4.5 (Invitrogen, Carlsbad, Calif.). Point mutations were created by site directed mutagenesis using the commercial kits according to the manufacturers specifications (QuikChange, Stratagene). The nucleotide sequence of the plasmid and the point mutations generated by site directed mutagenesis were confirmed by sequencing using the ABI Prism Big Dye Terminator Cycle Sequencing Ready Reaction Kit according to the manufacturer's specifications (Perkin Elmer, Cetus Norwalk, Conn.). The panel of HBV mutants was generated from a wild type (WT) genotype D HBV isolate by site-directed mutagenesis. Mutants encoded either WT HBV polymerase or polymerase with the amino acid substitutions listed in Table 8 in an HBeAg negative (precore [PC] G1896A mutant) background. Other HBV mutants can be made and tested for antiviral sensitivity in a similar manner.
(§4) Purified recombinant transfer vector and linear AcMNPV baculovirus DNA were co-transfected into Sf21 cells using the BacNBlue transfection kit from Invitrogen (Carlsbad, Calif.); recombinant viruses were isolated by plaque assay according to the manufacturer's instructions. A series of recombinant viruses were amplified from isolated plaques by infecting 100-mm dishes of Sf21 cells. Viral DNA was extracted from amplified viruses using standard procedures. Purified viral DNA was digested with restriction enzymes and then fractionated by electrophoresis in a 1% […] agarose gel. Southern blotting was performed to determine which virus isolates contained the intact 1.3 HBV construct. A Boehringer Mannheim Random Prime DNA Labeling kit (Indianapolis, Ind.) was used to generate [P^32]-radiolabeled probes. A full-length double-stranded HBV genome was used as a template for all radiolabeled probes. Viral DNA sequence was confirmed by PCR amplification and sequencing of the polymerase catalytic region.
(§5) Baculoviruses were amplified by infecting suspension cultures of Sf21 cells in log phase at a multiplicity of infection (moi) of 0.5 pfu/cell. […] Virions were concentrated from infected Sf21 medium by centrifugation at 80,000×g and purified through a 20-60% w/v sucrose gradient. Purified virus was titrated in quadruplicate in Sf21 cells by end-point dilution. An aliquot of each high titer stock was used for DNA extraction. The polymerase gene was amplified and sequenced to confirm the presence of the site-directed mutagenesis.
(§6) HepG2 cells were seeded at approximately 20-40% confluency and then were grown for 16-24 hours before infection. On the day of infection, triplicate plates of cells were trypsinized, and viable cell number was determined with a hemocytometer using Trypan blue exclusion. Average cell counts were calculated and used to determine the volume of high-titer viral stock necessary to infect cells at the indicated moi. HepG2 cells were washed one time with serum-free MEM to remove traces of serum. […]

[2] = system: HBV mutant L180M double (rt L180M, M204V); experiment: Antiviral testing in HepG2 cells transduced with recombinant HBV/baculovirus, L180M double mutant; format: cell-based, hepatitis B virus; settings: area under dose-response curve, value relative to WT = 1.0
Method: as §1, §2, §3, §4, §5, §6

[3] = system: HBV mutant L180M quad (rt L180M, T184G, S202I, M204V); experiment: Antiviral testing in HepG2 cells transduced with recombinant HBV/baculovirus, L180M quad mutant; format: cell-based, hepatitis B virus; settings: area under dose-response curve, value relative to WT = 1.0
Method: as §1, §2, §3, §4, §5, §6

[4] = system: HBV mutant V173L triple (rt V173L, L180M, M204V); experiment: Antiviral testing in HepG2 cells transduced with recombinant HBV/baculovirus, V173L triple mutant; format: cell-based, hepatitis B virus; settings: area under dose-response curve, value relative to WT = 1.0
Method: as §1, §2, §3, §4, §5, §6

HBV = settings: 30 mg daily dose, over 12 weeks, phase II studies; cited from earlier work

Row | Compound | AUC [1] | AUC [2] | AUC [3] | AUC [4] | mean decrease in viremia (HBV)
1 | CC(C)(C)C(=O)OCOP(=O)(COCCn1cnc2c(N)ncnc21)OCOC(=O)C(C)(C)C [ADV, adefovir dipivoxil] | 1.0 | 1.7 | 1.3 | 0.4 | 4 log10
2 | C=C1[C@H](CO)[C@@H](O)C[C@@H]1n1cnc2c(=O)[nH]c(N)nc21 [ETV, entecavir] | 1.0 | 215.9 | 242.7 | 47.5 | 
3 | Nc1nc(=O)n([C@@H]2CS[C@H](CO)O2)cc1F [FTC, (−)-β-L-2′-3′-dideoxy-5-fluoro-3′-thiacydidine] | 1.0 | 761.4 | 464.4 | 1200.0 | 
4 | Cc1cn([C@@H]2C[C@@H](O)[C@H](CO)O2)c(=O)[nH]c1=O [L-dT] | 1.0 | 13.7 | 21.1 | 12.7 | 
5 | Nc1ccn([C@@H]2CS[C@H](CO)O2)c(=O)n1 [LMV, (−)-β-2′-deoxy-3′-thiacytidine] | 1.0 | 363.1 | 603.4 | 625.3 | 
6 | CC(C)OC(=O)OCOP(=O)(CO[C@H](C)Cn1cnc2c(N)ncnc21)OCOC(=O)OC(C)C [TFV, tenofovir disoproxil fumarate] | 1.0 | 2.1 | 4.2 | 2.3 | 
